# EP0616804A1 (priority 1993, dated 1994)
# Where “and” joins values, the source holds several entries; their conditions need not be identical. Equal values may be shown once. Read-outs that look alike come from different tables or passages of the source.
# Assays:
# [1] = Light/dark exploration test; type: in vivo, mouse; conditions: 10 mg/kg ip, total hours (32) referred to all animals, 8 animals, 4 hours; for Dark section: controls 14; for Lit section: controls 18
# Description: The test is performed with a cage subdivided into two sections, a dark and a lit one.
# Evidence was provided that the mice treated with adequate doses of anxiolytic drugs, e.g. Diazepam or Buspirone, spend a longer time in the lit section than controls.
# The anxiolytic activity, if any, of the molecules can be evaluated on the basis of the time spent in the lit section.
# The total duration of the test for each group of 8 animals was 4 hours.
# The data are expressed as total hours (32) referred to all animals.
# [2] = rats, ip; antidepressants and anxiolytics known to the prior art; cited from earlier work
# [3] = Toxicity (LD50), Table 6; conditions: rat, in vivo, rats, read-out: LD₅₀
# Text: The toxicity of gamma-hydroxybutyrate sodium salt to rats compared with antidepressants and anxiolytics known to the prior art is shown in Table 6.
# [4] = Despair test (Porsolt behavioural test, duration of immobility); type: in vivo, Male Swiss mice (CD strain, Charles River); conditions: mice; for <%: decrease of immobility vs dose 0; for Duration of immobility: one hour before testing
# Description: This behavioural test developed by R.D. Porsolt et al. (Arch. int. Pharmacodyn. 229, 327-336, 1977) is commonly used to evaluate the activity of antidepressant agents.
# Male Swiss mice (CD strain, Charles River) weighing 30 g were used and assigned at random to the various treatment groups.
# The mice were plunged individually into a Plexiglas cylinder of 25 cm in height and 9 cm in diameter, filled with water at 24°C, for a 6 min latency up to 6 cm from the upper lip.
# The duration of the test was 6 minutes. The time during which the animal kept floating passively was measured starting from the 2nd minute (duration of immobility).
# One hour before testing, sodium gamma-hydroxybutyrate (NaGHB) as an acqueous suspension additioned of non-ionic surfactant Tween was administered by i.p. injection in a volume of 10 ml/kg, or per os.
# Blind tests were performed. The statistical analysis of the data was performed, whenever possible, by Student's t-test, otherwise by Mann Whitney's non-parametric test.
# [5] = parameters: species or system Male Sprague-Dawley rats; conditions: rat, in vivo
compound,measurement,setting,value
O=C1CC2(CCCC2)CC(=O)N1CCCCN1CCN(c2ncccn2)CC1 [Buspirone],Dark section,[1],10 total hours
same,Lit section,[1],22 total hours
same,LD₅₀,[2],136 mg/kg
CN1C(=O)CN=C(c2ccccc2)c2cc(Cl)ccc21 [Diazepam],Dark section,[1],7 total hours
same,Lit section,[1],25 total hours
"O=C([O-])CCCO.[Na+] [NaGHB, sodium gamma-hydroxybutyrate]",Dark section,[1],9 total hours
same,Lit section,[1],23 total hours
same,LD50,"[3]; po, os",12400 mg/kg
same,LD50,[3]; ip,3280 mg/kg
same,<%,"[4]; ip, 5 mg/kg",15%
same,<%,"[4]; ip, 10 mg/kg",27%
same,<%,"[4]; ip, 20 mg/kg",36%
same,<%,"[4]; ip, 40 mg/kg",43%
same,<%,"[4]; per os, 20 mg/kg",17%
same,<%,"[4]; per os, 50 mg/kg",40%
same,<%,"[4]; per os, 100 mg/kg",42%
same,Duration of immobility,"[4]; ip, 5 mg/kg",179 ± 24 s
same,Duration of immobility,"[4]; ip, 10 mg/kg",153 ± 19 s
same,Duration of immobility,"[4]; ip, 20 mg/kg",134 ± 26 s
same,Duration of immobility,"[4]; ip, 40 mg/kg",120 ± 12 s
same,Duration of immobility,"[4]; per os, 20 mg/kg",189 ± 23 s
same,Duration of immobility,"[4]; per os, 50 mg/kg",137 ± 16 s
same,Duration of immobility,"[4]; per os, 100 mg/kg",133 ± 31 s
same,mean reaction time,[5],decreased mean reaction time
same,number of attempts to escape,[5],increased number of attempts to escape
same,difference between the group of controls and the CNaGHB group,[5]; 10 mg/kg,no significant difference
same,"Mean reaction time, mean ± S.E.","[5]; ip, 10 mg/kg",5.76±0.34 and 5.4±1.0
same,"No. of escape failures, mean ± S.E.","[5]; ip, 10 mg/kg",21.3±1.1 and 23.6±2.6
